Key:
U-251 = assay: Cytotoxicity against human U251 cells assessed as reduction in cell growth incubated for 48 hrs by MTT assay; format: functional, cell-based; settings: U-251, 48 h
A549 = assay: Cytotoxicity against human A549 cells assessed as reduction in cell growth incubated for 48 hrs by MTT assay; format: functional, cell-based; settings: A549, 48 h
Bcap37 = assay: Cytotoxicity against human Bcap37 cells assessed as reduction in cell growth incubated for 48 hrs by MTT assay; format: functional, cell-based; settings: Bcap37, 48 h
HepG2 [1] = assay: cells; settings: Homo sapiens, HepG2, 48 h
MCF7 = assay: cells; settings: Homo sapiens, MCF7, 48 h
HepG2 [2] = assay: Induction of apoptosis in human HepG2 cells assessed as early apoptotic cells at 2 uM after 48 hrs by Annexin V-FITC/propidium iodide based flow cytometric analysis (reference value: 3.33 %); format: functional
HepG2 [3] = assay: Induction of apoptosis in human HepG2 cells assessed as late apoptotic cells at 2 uM after 48 hrs by Annexin V-FITC/propidium iodide based flow cytometric analysis (reference value: 3.81 %); format: functional
HepG2 [4] = assay: Induction of apoptosis in human HepG2 cells after 48 hrs by Annexin V-FITC/propidium iodide based flow cytometric analysis; format: functional, cell-based

SMILES: COc1c(-c2cc(O)c3c(c2)C=CC(C)(C)O3)oc2c(CC=C(C)C)c(O)cc(O)c2c1=O
- IC50 (U-251): > 100 µM
- IC50 (A549): 66.8 µM
- IC50 (Bcap37): > 100 µM
- IC50 (HepG2 [1]): 36.7 µM
- IC50 (MCF7): 76.9 µM

SMILES: COc1c(-c2ccc(O)c(O)c2)oc2c(CC=C(C)C)c(O)c(CC=C(C)C)c(O)c2c1=O
- IC50 (U-251): 17.3 µM
- IC50 (A549): 25 µM
- IC50 (Bcap37): 45.4 µM
- IC50 (HepG2 [1]): 14.1 µM
- IC50 (MCF7): 18.8 µM

SMILES: COc1ccc(-c2cc(=O)c3c(O)c(OC)c(O)cc3o2)cc1OC [EUPATILIN]
- IC50 (U-251): > 100 µM
- IC50 (A549): > 100 µM
- IC50 (Bcap37): > 100 µM
- IC50 (HepG2 [1]): 52.6 µM
- IC50 (MCF7): 90.1 µM

SMILES: CC(C)=CCc1cc([C@@H]2CC(=O)c3ccc(O)cc3O2)c2c(c1O)OC(C)(C)CC2
- IC50 (U-251): > 100 µM
- IC50 (A549): 18.4 µM
- IC50 (Bcap37): > 100 µM
- IC50 (HepG2 [1]): > 100 µM
- IC50 (MCF7): > 100 µM

SMILES: COc1c(-c2cc(O)c3c(c2)C=CC(C)(C)O3)oc2c3c(cc(O)c2c1=O)OC(C)(C)[C@@H](O)C3
- IC50 (U-251): 12 µM
- IC50 (A549): 5.39 µM
- IC50 (Bcap37): 20.8 µM
- Activity (HepG2 [2]): 13.77%
- Activity (HepG2 [3]): 14.32%
- Activity (HepG2 [4]): Dose-dependent effect
- IC50 (HepG2 [1]): 4.26 µM
- IC50 (MCF7): 6.98 µM

SMILES: O=c1[nH]cc(F)c(=O)[nH]1 [FLUOROURACIL]
- IC50 (U-251): 38.7 µM
- IC50 (A549): 24.7 µM
- IC50 (Bcap37): 37.1 µM
- IC50 (HepG2 [1]): 39.7 µM

SMILES: CC(C)=CCc1c(-c2ccc(O)cc2O)oc2c3c(cc(O)c2c1=O)OC(C)(C)C=C3 [MORUSIN]
- IC50 (U-251): 17.9 µM
- IC50 (A549): 24.1 µM
- IC50 (Bcap37): 33.1 µM
- IC50 (HepG2 [1]): 9.3 µM
- IC50 (MCF7): 11.5 µM

From ChEMBL document CHEMBL4425148, “Cytotoxic prenylated flavones from the stem and root bark of Daphne giraldii” (Bioorg Med Chem Lett, 2016)
